Entries after “also recorded” stand apart in the source; their conditions may differ.
How the values were obtained:
Assay type in all cases: physicochemical
[1] = Physical stability on storage at controlled relative humidity; details: stored 6 days
Method: 3-[5-(2-fluorophenyl)-[1,2,4]oxadiazol-3-yl]-benzoic acid (UNMEASURED QUANTITY; FORM B) was stressed in 75% relative humidity at 40° C. for six days.

[2] = Physical stability on milling / micronization; details: for physical stability when milled: milled at ambient and at sub-ambient temperatures
[3] = Physical stability on slurrying in solvents
[4] = Dynamic vapor sorption (DVS) hygroscopicity; details: for hygroscopicity: DVS isotherm
Method: Form A of 3-[5-(2-fluorophenyl)-[1,2,4]oxadiazol-3-yl]-benzoic acid was evaluated for hygroscopicity. Dynamic vapor sorption (DVS) analysis of moisture uptake and moisture release as a function of relative humidity (RH) were obtained upon cycling between 5% and 95% RH. […] Accordingly, in certain embodiments, Form A is non-hygroscopic.
Moisture sorption/desorption data were collected on a VTI SGA-100 Vapor Sorption Analyzer. Sorption and desorption data were collected over a range of 5% to 95% relative humidity (RH) at 10% RH intervals under a nitrogen purge. Samples were not dried prior to analysis. Equilibrium criteria used for analysis were less than 0.0100% weight change in 5 minutes, with a maximum equilibration time of 3 hours if the weight criterion was not met. Data were not corrected for the initial moisture content of the samples. NaCl and PVP were used as calibration standards.

[5] = Physical stability under compression

physical stability on storage ([1]; 50% RH at 60° C.)	physical stability on storage ([1]; 53% RH at 40° C.)	physical stability on storage ([1]; 79% RH at 60° C.)	physical and chemical stability upon micronization ([2]; micronization (particle size reduction))	physical stability when milled [2]	physical stability when slurried ([3]; in 1-BuOH for 4 days at ambient temperature)	physical stability when slurried ([3]; in chloroform for 2 days at 50° C.)	physical stability when slurried ([3]; in dichloromethane for 2 days at 50° C.)	hygroscopicity [4]	physical stability when slurried ([3]; 1 day at ambient temperature in a 1:1 mixture of THF and heptane)	physical stability when slurried ([3]; in a 1:1 mixture of dioxane and water)	physical stability when slurried ([3]; in methyl isobutyl ketone)	physical stability under compression ([5]; compression alone)	physical stability under compression ([5]; compression in the presence of a 1:1 mixture of t-BuOH and water)	SMILES	physical stability on storage ([1]; 75% RH at 40° C.)	maximum moisture uptake (DVS) ([4]; cycling between 5% and 95% RH)
physically stable	physically stable	physically stable	physically and chemically stable	physically stable	physically stable	physically stable	physically stable	substantially non-hygroscopic	–	–	–	–	–	O=C(O)c1cccc(-c2noc(-c3ccccc3F)n2)c1 [Form A, 3-[5-(2-fluorophenyl)-[1,2,4]oxadiazol-3-yl]-benzoic acid]	physically stable	about 0.06 % of the total mass of the sample
physically stable	physically stable	partial conversion to Form A	–	conversion from Form B to Form A	–	–	–	substantially non-hygroscopic	physically stable	conversion of Form B to Form A	conversion of Form B to Form A	physically stable	physically stable	O=C(O)c1cccc(-c2noc(-c3ccccc3F)n2)c1 [Form B, 3-[5-(2-fluorophenyl)-[1,2,4]oxadiazol-3-yl]-benzoic acid]	physically stable; also recorded: characterized by XRPD as Form B	–

Source: patent publication US8748625B2, “Crystalline forms of 3-[5-(2-fluorophenyl)-[1,2,4]oxadiazol-3-yl]-benzoic acid” (PTC Therapeutics, Inc., priority 2006, dated 2014)
